The text below walks through data of patent US10731159B2, “Cationic lipid” (DAIICHI SANKYO COMPANY, LIMITED, priority 2013, dated 2020).

What all share (type): physicochemical
Data set [1] can be described thus: Average particle size of nucleic acid lipid particle (NICOMP 380ZLS). As to the method: The particle size of the liposome was measured using Zeta Potential/Particle Sizer NICOMP™ 380ZLS (Particle Sizing Systems, LLC). In the tables, the average particle size is indicated by a volume-average particle size, and the numeric value following ±represents a deviation.

Data set [2] in a line: Rate of encapsulation of polynucleotide/mRNA (Quant-iT RiboGreen, with and without Triton X-100).
Data set [3] is described as follows: Ratio of polynucleotide/mRNA to lipid (wt/wt).
Where [4] appears, read: particles of Example 31, volume-average particle size ± deviation.
The mark [5] stands for this setting: particles of Example 31: DSPC:Chol:LP:PEG-C-DMA=20:48:30:2, CT-157/CT-169 double-stranded polynucleotide.

`CCCCC/C=C\C/C=C\CCCCCCCC(CCCCCCCCCC)OC(=O)OCCCN(C)C` (stereo not drawn) [Example 8, 3-Dimethylaminopropyl(9Z,12Z)-octacosa-19,22-dien-11-yl Carbonate]: the Average particle size in data set [1] (setting [4]) is on record as 157 ± 46 nm. Besides, the “Rate of polynucleotide encapsulation” value in data set [2] (setting [5]) amounted to 96.4%. The “Ratio of polynucleotide to lipid siRNA/lipid” value in data set [3] (particles of Example 31, total lipids calculated from phospholipid, cholesterol and LP amounts (Table 4)) is recorded as 0.072 wt/wt.

Take `CCCCC/C=C\C/C=C\CCCCCCCCC(CCCCCCCC/C=C\C/C=C\CCCCC)OC(=O)OCCN(C)C` [Reference Example 2, 2-(Dimethylamino)ethyl(6Z,9Z,28Z,31Z)-heptatriaconta-6,9,28,31-tetraen-19-yl Carbonate, reference compound]: the Average particle size in data set [1] (Example 55: particles prepared as in Example 31, ± deviation) is reported as 165 ± 11 nm; in data set [1] (setting [4]) it was 139 ± 50 nm. In addition, the “Rate of polynucleotide encapsulation” value in data set [2] (Example 55: particles prepared as in Example 31 (β-catenin double-stranded polynucleotide)) is given as 94%; in data set [2] (setting [5]), 89.0%. For the same compound, the “Ratio of polynucleotide to lipid siRNA/lipid” value was 0.055 wt/wt in data set [3] (Example 55: particles prepared as in Example 31); 0.104 wt/wt in data set [3] (particles of Example 31, total lipids calculated from phospholipid amount and compositional ratio (Table 3)).
